Here are results for three compounds from ChEMBL document CHEMBL1141009, “Synthesis of BODIPY-labeled alkylphosphocholines with leishmanicidal activity, as fluorescent analogues of miltefosine” (2008).

This assay relates to Leishmania donovani. Description: Antileishmanial activity against Leishmania donovani promastigotes. In kind it is functional. Particulars: read-out: LD50 (the source's name).
Regarding `CCC1=C(C)C2=Cc3c(C)c(CCCCCCCCCCCOP(=O)([O-])OCC[N+](C)(C)C)c(C)n3[B-](F)(F)[N+]2=C1C`, the LC50 is 4.3 µM.

`CC1=CC(C)=[N+]2C1=Cc1c(C)c(CCCCCCCCCCCOP(=O)([O-])OCC[N+](C)(C)C)c(C)n1[B-]2(F)F`: the LC50 came out at 5.2 µM. For `CCCCCCCCCCCCCCCCOP(=O)([O-])OCC[N+](C)(C)C` [MILTEFOSINE] the value was 6.5 µM.
